# Target: T1, Endothelin-converting enzyme 1 (Rattus norvegicus, UniProt P42893)
# T1 sequence (P42893 whole entry): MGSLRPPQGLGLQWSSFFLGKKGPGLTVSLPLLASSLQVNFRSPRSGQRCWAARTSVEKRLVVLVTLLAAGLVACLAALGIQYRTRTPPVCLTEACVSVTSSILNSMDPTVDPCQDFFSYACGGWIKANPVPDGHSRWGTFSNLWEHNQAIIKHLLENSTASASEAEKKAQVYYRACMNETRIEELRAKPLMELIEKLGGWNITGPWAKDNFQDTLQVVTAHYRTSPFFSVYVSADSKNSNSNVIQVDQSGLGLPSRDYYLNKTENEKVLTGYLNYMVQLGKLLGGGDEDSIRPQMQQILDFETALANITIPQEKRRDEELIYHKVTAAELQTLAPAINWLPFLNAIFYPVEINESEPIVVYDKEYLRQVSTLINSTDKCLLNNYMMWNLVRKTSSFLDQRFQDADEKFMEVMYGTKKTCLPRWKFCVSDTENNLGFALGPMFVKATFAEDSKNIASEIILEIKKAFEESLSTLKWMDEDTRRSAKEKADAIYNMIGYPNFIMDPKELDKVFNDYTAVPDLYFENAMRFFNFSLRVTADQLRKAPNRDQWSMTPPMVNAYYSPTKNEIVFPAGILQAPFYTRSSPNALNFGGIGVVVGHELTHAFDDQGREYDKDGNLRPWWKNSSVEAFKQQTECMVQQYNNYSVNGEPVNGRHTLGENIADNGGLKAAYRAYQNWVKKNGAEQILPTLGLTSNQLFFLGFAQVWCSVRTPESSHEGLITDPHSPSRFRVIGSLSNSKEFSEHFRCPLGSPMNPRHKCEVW
# Assay: Inhibition Assay
# Excerpt: Inhibition assay using ECE.
row,Compound,IC50 [µM]
1,CC(C)(C)CC(=O)Nc1ccc2c(c1)cc(C(=O)Nc1ccn[nH]1)n2Cc1ccccc1F,> 10
2,CC(C)(C)CC(=O)Nc1ccc2c(c1)cc(C(=O)Nc1cccc(C(=O)Nc3ccc(S(N)(=O)=O)cc3)c1)n2Cc1ccccc1F,0.01
3,"CC(C)(C)CC(=O)Nc1ccc2c(c1)cc(C(=O)Nc1ccccc1)n2Cc1ccccc1F [ECE Inhibitor, 6]",1.8
4,"CC(C)(C)CC(=O)Nc1ccc2c(c1)cc(C(=O)Nc1ccc(Cl)nc1)n2Cc1ccccc1F [ECE Inhibitor, 9]",0.22

# The remaining lines, values ahead:
row,IC50 [µM],Compound
1,> 10,"CC(C)(C)CC(=O)Nc1ccc2c(c1)cc(C(=O)Nc1nc3ccccc3[nH]1)n2Cc1ccccc1F [ECE Inhibitor, 8]"
2,0.41,"CC(C)(C)CC(=O)Nc1ccc2c(c1)cc(C(=O)Nc1ccc(S(=O)(=O)Nc3ccccn3)cc1)n2Cc1ccccc1F [ECE Inhibitor, 10]"
3,0.18,"CC(C)(C)CC(=O)Nc1ccc2c(c1)cc(C(=O)Nc1cncc(C(=O)O)c1)n2Cc1ccccc1F [ECE Inhibitor, 13]"
4,0.01,"CC(C)(C)CC(=O)Nc1ccc2c(c1)cc(C(=O)Nc1cncc(C(=O)Nc3ccc(S(N)(=O)=O)cc3)c1)n2Cc1ccccc1F [ECE Inhibitor, 14]"

# Source: BindingDB's records for doi:10.1002/cmdc.200500009 (Bayer Healthcare, 2006)
